Laboratory results from patent US20150105252A1, “SUBSTITUTED PYRAZOLES AS HERBICIDES” (E I DU PONT DE NEMOURS AND COMPANY, priority 2013, published 2015).

Legend:
canarygrass = experiment: Test D preemergence; format: in vivo, Phalaris minor; conditions: for Plant response rating, Canarygrass: Preemergence, scale 0 to 100
Text: (§1) Seeds of plant species selected from bluegrass (annual bluegrass, Poa annua), blackgrass (Alopecurus myosuroides), canarygrass (littleseed canarygrass, Phalaris minor), chickweed (common chickweed, Stellaria media), galium (catchweed bedstraw, Galium aparine), bromegrass, downy (downy bromegrass, Bromus tectorum), field poppy (Papaver rhoeas), field violet (Viola arvensis), foxtail, green (green foxtail, Setaria viridis), deadnettle (henbit deadnettle, Lamium amplexicaule), ryegrass, Italian (Italian ryegrass, Lolium multiflorum), kochia (Kochia scoparia), lambsquarters (Chenopodium album), oilseed rape (Brassica napus), pigweed (redroot pigweed, Amaranthus retroflexus), chamomile (scentless chamomile, Matricaria inodora), speedwell (bird's-eye speedwell, Veronica persica), barley, spring (spring barley, Hordeum vulgare), wheat, spring (spring wheat, Triticum aestivum), buckwheat, wild (wild buckwheat, Polygonum convolvulus), mustard, wild (wild mustard, Sinapis arvensis), oat, wild (wild oat, Avena fatua), radish, wild (wild radish, Raphanus raphanistrum), windgrass (Apera spica-venti), Russian thistle (Salsola kali), barley, winter (winter barley, Hordeum vulgare), and wheat, winter (winter wheat, Triticum aestivum) were planted into a silt loam soil and treated preemergence with test chemicals formulated in a non-phytotoxic solvent mixture which included a surfactant.
(§2) At the same time, these species were planted in pots containing Redi-Earth® planting medium (Scotts Company, 14111 Scottslawn Road, Marysville, Ohio 43041) comprising spaghnum peat moss, vermiculite, wetting agent and starter nutrients and treated with postemergence applications of the test chemicals formulated in the same manner. Plants ranged in height from 2 to 18 cm (1- to 4-leaf stage). Treated plants and controls were maintained in a controlled growth environment for 14 to 21 days after which time all species were compared to controls and visually evaluated. Plant response ratings, summarized in Table D, are based on a scale of 0 to 100 where 0 is no effect and 100 is complete control. A dash (-) response means no test result.

oilseed rape [1] = experiment: Test D preemergence; format: in vivo, Brassica napus; conditions: for Plant response rating, Oilseed Rape: Preemergence, scale 0 to 100
Text: as §1, §2

pigweed = experiment: Test D preemergence; format: in vivo, Amaranthus retroflexus; conditions: for Plant response rating, Pigweed: Preemergence, scale 0 to 100
Text: as §1, §2

chamomile = experiment: Test D postemergence; format: in vivo, Matricaria inodora; conditions: scale 0 to 100
Text: as §1, §2

barley, winter = experiment: Test D preemergence; format: in vivo, Hordeum vulgare; conditions: for Plant response rating, Barley, Winter: Preemergence, scale 0 to 100
Text: as §1, §2

barley, spring = experiment: Test D preemergence; format: in vivo, Hordeum vulgare; conditions: for Plant response rating, Barley, Spring: Preemergence, scale 0 to 100
Text: as §1, §2

blackgrass = experiment: Test D preemergence; format: in vivo, Alopecurus myosuroides; conditions: for Plant response rating, Blackgrass: Preemergence, scale 0 to 100
Text: as §1, §2

windgrass = experiment: Test D preemergence; format: in vivo, Apera spica-venti; conditions: for Plant response rating, Windgrass: Preemergence, scale 0 to 100
Text: as §1, §2

oat, wild = experiment: Test D postemergence; format: in vivo, Avena fatua; conditions: scale 0 to 100
Text: as §1, §2

buckwheat, wild = experiment: Test D preemergence; format: in vivo, Polygonum convolvulus; conditions: for Plant response rating, Buckwheat, Wild: Preemergence, scale 0 to 100
Text: as §1, §2

ryegrass, Italian [2] = experiment: Test D postemergence; format: in vivo, Lolium multiflorum; conditions: scale 0 to 100
Text: as §1, §2

lambsquarters = experiment: Test D preemergence; format: in vivo, Chenopodium album; conditions: for Plant response rating, Lambsquarters: Preemergence, scale 0 to 100
Text: as §1, §2

wheat, spring = experiment: Test D preemergence; format: in vivo, Triticum aestivum; conditions: for Plant response rating, Wheat, Spring: Preemergence, scale 0 to 100
Text: as §1, §2

wheat, winter = experiment: Test D preemergence; format: in vivo, Triticum aestivum; conditions: for Plant response rating, Wheat, Winter: Preemergence, scale 0 to 100
Text: as §1, §2

ryegrass, Italian [3] = experiment: Test D preemergence; format: in vivo, Lolium multiflorum; conditions: for Plant response rating, Ryegrass, Italian: Preemergence, scale 0 to 100
Text: as §1, §2

mustard, wild = experiment: Test D postemergence; format: in vivo, Sinapis arvensis; conditions: scale 0 to 100
Text: as §1, §2

galium = experiment: Test D preemergence; format: in vivo, Galium aparine; conditions: for Plant response rating, Galium: Preemergence, scale 0 to 100
Text: as §1, §2

field poppy = experiment: Test D preemergence; format: in vivo, Papaver rhoeas; conditions: for Plant response rating, Field Poppy: Preemergence, scale 0 to 100
Text: as §1, §2

oilseed rape [4] = experiment: Test D postemergence; format: in vivo, Brassica napus; conditions: scale 0 to 100
Text: as §1, §2

[5] = 16 g ai/ha, taken as preemergence

Structure (SMILES): CCc1cc(C(=O)NC2CC2)nn1Cc1ccnc(C(F)(F)F)c1 [Compound 76]
- Plant response rating (scale 0 to 100), Canarygrass (canarygrass; [5]): 0
- Plant response rating, Canarygrass (canarygrass; 31 g ai/ha): 5
- Plant response rating, Canarygrass (canarygrass; 62 g ai/ha): 65
- Plant response rating, Canarygrass (canarygrass; 125 g ai/ha): 100
- Plant response rating, Canarygrass (canarygrass; 250 g ai/ha): 100
- Plant response rating (scale 0 to 100), Oilseed Rape (oilseed rape [1]; [5]): 10
- Plant response rating, Oilseed Rape (oilseed rape [1]; 31 g ai/ha): 30
- Plant response rating, Oilseed Rape (oilseed rape [1]; 62 g ai/ha): 65
- Plant response rating, Oilseed Rape (oilseed rape [1]; 125 g ai/ha): 90
- Plant response rating, Oilseed Rape (oilseed rape [1]; 250 g ai/ha): 100
- Plant response rating (scale 0 to 100), Pigweed (pigweed; [5]): 10
- Plant response rating, Pigweed (pigweed; 31 g ai/ha): 60
- Plant response rating, Pigweed (pigweed; 62 g ai/ha): 80
- Plant response rating, Pigweed (pigweed; 125 g ai/ha): 100
- Plant response rating, Pigweed (pigweed; 250 g ai/ha): 100
- Plant response rating, Chamomile (chamomile; Postemergence, 16 g ai/ha): 10
- Chamomile plant response rating (chamomile; Postemergence, 31 g ai/ha): 25
- Chamomile plant response rating (chamomile; Postemergence, 125 g ai/ha): 50
- Chamomile plant response rating (chamomile; Postemergence, 250 g ai/ha): 55
- Chamomile plant response rating (chamomile; postemergence, 62 g ai/ha): 30
- Plant response rating (scale 0 to 100), Barley, Winter (barley, winter; [5]): 0
- Plant response rating, Barley, Winter (barley, winter; 31 g ai/ha): 0
- Plant response rating, Barley, Winter (barley, winter; 62 g ai/ha): 15
- Plant response rating, Barley, Winter (barley, winter; 125 g ai/ha): 60
- Plant response rating, Barley, Winter (barley, winter; 250 g ai/ha): 75
- Plant response rating (scale 0 to 100), Barley, Spring (barley, spring; 16 g ai/ha, taken as preemergence, 0 = no effect, 100 = complete control): 0
- Plant response rating, Barley, Spring (barley, spring; 31 g ai/ha): 0
- Plant response rating, Barley, Spring (barley, spring; 62 g ai/ha): 10
- Plant response rating, Barley, Spring (barley, spring; 125 g ai/ha): 65
- Plant response rating, Barley, Spring (barley, spring; 250 g ai/ha): 75
- Plant response rating (scale 0 to 100), Blackgrass (blackgrass; [5]): 20
- Plant response rating, Blackgrass (blackgrass; 31 g ai/ha): 50
- Plant response rating, Blackgrass (blackgrass; 62 g ai/ha): 100
- Plant response rating, Blackgrass (blackgrass; 125 g ai/ha): 100
- Plant response rating, Blackgrass (blackgrass; 250 g ai/ha): 100
- Plant response rating (scale 0 to 100), Windgrass (windgrass; [5]): 5
- Plant response rating, Windgrass (windgrass; 31 g ai/ha): 15
- Plant response rating, Windgrass (windgrass; 62 g ai/ha): 65
- Plant response rating, Windgrass (windgrass; 125 g ai/ha): 80
- Plant response rating, Windgrass (windgrass; 250 g ai/ha): 100
- Plant response rating, Oat, Wild (oat, wild; Postemergence, 16 g ai/ha): 5
- Oat, Wild plant response rating (oat, wild; Postemergence, 31 g ai/ha): 5
- Oat, Wild plant response rating (oat, wild; Postemergence, 125 g ai/ha): 10
- Oat, Wild plant response rating (oat, wild; Postemergence, 250 g ai/ha): 15
- Oat, Wild plant response rating (oat, wild; postemergence, 62 g ai/ha): 10
- Plant response rating (scale 0 to 100), Buckwheat, Wild (buckwheat, wild; [5]): 0
- Plant response rating, Buckwheat, Wild (buckwheat, wild; 31 g ai/ha): 20
- Plant response rating, Buckwheat, Wild (buckwheat, wild; 62 g ai/ha): 70
- Plant response rating, Buckwheat, Wild (buckwheat, wild; 125 g ai/ha): 100
- Plant response rating, Buckwheat, Wild (buckwheat, wild; 250 g ai/ha): 100
- Plant response rating, Ryegrass, Italian (ryegrass, Italian [2]; Postemergence, 16 g ai/ha): 0
- Ryegrass, Italian plant response rating (ryegrass, Italian [2]; Postemergence, 31 g ai/ha): 0
- Ryegrass, Italian plant response rating (ryegrass, Italian [2]; Postemergence, 125 g ai/ha): 5
- Ryegrass, Italian plant response rating (ryegrass, Italian [2]; Postemergence, 250 g ai/ha): 10
- Ryegrass, Italian plant response rating (ryegrass, Italian [2]; postemergence, 62 g ai/ha): 5
- Plant response rating (scale 0 to 100), Lambsquarters (lambsquarters; [5]): 30
- Plant response rating, Lambsquarters (lambsquarters; 31 g ai/ha): 70
- Plant response rating, Lambsquarters (lambsquarters; 62 g ai/ha): 95
- Plant response rating, Lambsquarters (lambsquarters; 125 g ai/ha): 100
- Plant response rating, Lambsquarters (lambsquarters; 250 g ai/ha): 100
- Plant response rating (scale 0 to 100), Wheat, Spring (wheat, spring; [5]): 0
- Plant response rating, Wheat, Spring (wheat, spring; 31 g ai/ha): 0
- Plant response rating, Wheat, Spring (wheat, spring; 62 g ai/ha): 10
- Plant response rating, Wheat, Spring (wheat, spring; 125 g ai/ha): 60
- Plant response rating, Wheat, Spring (wheat, spring; 250 g ai/ha): 75
- Plant response rating (scale 0 to 100), Wheat, Winter (wheat, winter; [5]): 0
- Plant response rating, Wheat, Winter (wheat, winter; 31 g ai/ha): 0
- Plant response rating, Wheat, Winter (wheat, winter; 62 g ai/ha): 5
- Plant response rating, Wheat, Winter (wheat, winter; 125 g ai/ha): 40
- Plant response rating, Wheat, Winter (wheat, winter; 250 g ai/ha): 60
- Plant response rating (scale 0 to 100), Ryegrass, Italian (ryegrass, Italian [3]; [5]): 0
- Plant response rating, Ryegrass, Italian (ryegrass, Italian [3]; 31 g ai/ha): 0
- Plant response rating, Ryegrass, Italian (ryegrass, Italian [3]; 62 g ai/ha): 15
- Plant response rating, Ryegrass, Italian (ryegrass, Italian [3]; 125 g ai/ha): 65
- Plant response rating, Ryegrass, Italian (ryegrass, Italian [3]; 250 g ai/ha): 95
- Plant response rating, Mustard, Wild (mustard, wild; Postemergence, 16 g ai/ha): 10
- Mustard, Wild plant response rating (mustard, wild; Postemergence, 31 g ai/ha): 40
- Mustard, Wild plant response rating (mustard, wild; Postemergence, 125 g ai/ha): 100
- Mustard, Wild plant response rating (mustard, wild; Postemergence, 250 g ai/ha): 100
- Mustard, Wild plant response rating (mustard, wild; postemergence, 62 g ai/ha): 70
- Plant response rating (scale 0 to 100), Galium (galium; [5]): 25
- Plant response rating, Galium (galium; 31 g ai/ha): 50
- Plant response rating, Galium (galium; 62 g ai/ha): 100
- Plant response rating, Galium (galium; 125 g ai/ha): 100
- Plant response rating, Galium (galium; 250 g ai/ha): 100
- Plant response rating (scale 0 to 100), Field Poppy (field poppy; [5]): 95
- Plant response rating, Field Poppy (field poppy; 31 g ai/ha): 100
- Plant response rating, Field Poppy (field poppy; 62 g ai/ha): 100
- Plant response rating, Field Poppy (field poppy; 125 g ai/ha): 100
- Plant response rating, Field Poppy (field poppy; 250 g ai/ha): 100
- Plant response rating, Oilseed Rape (oilseed rape [4]; Postemergence, 16 g ai/ha): 10
- Oilseed Rape plant response rating (oilseed rape [4]; Postemergence, 31 g ai/ha): 15
- Oilseed Rape plant response rating (oilseed rape [4]; Postemergence, 125 g ai/ha): 50
- Oilseed Rape plant response rating (oilseed rape [4]; Postemergence, 250 g ai/ha): 70
- Oilseed Rape plant response rating (oilseed rape [4]; postemergence, 62 g ai/ha): 20
